From US20220026415A1, “A METHOD FOR SCREENING A THERAPEUTIC AGENT FOR CANCER USING BINDING INHIBITOR OF CYCLIN-DEPENDENT KINASE 1 (CDK1)-CYCLIN B1 AND RETINOIC ACID RECEPTOR RESPONDER 1 (RARRES1) GENE KNOCKOUT ANIMAL MODEL” (NATIONAL CANCER CENTER, priority 2018, published 2022)
Where a SMILES comes first, the peptide text is derived from it. The star is where a group is joined. Cbz = O=C(OCc1ccccc1)*

Columns and labels:
[1] = test system: RARRES1 expression; assay: Restoration of RARRES1 expression by DNA methylation inhibitor, RT-PCR; type: cell-based, human; details: for tested cell lines showing restored RARRES1 expression in a dose-dependent manner: 5, 25 and 100 uM for 5 days
Description: Total RNA was extracted from human cancer cell lines including prostate cancer, lung cancer, and breast cancer by using a TRIzol reagent (Invitrogen) according to the manufacturer's instructions, and 1 ug of total RNA was converted into cDNA with a Superscript® reverse transcriptase (Invitrogen). Primers used for human DNA were as follows: RARRES1-1-F ([…]), RARRES1-1-R ([…]), RARRES1-2-F ([…]), RARRES1-2-R ([…]), Cyclin B1-F ([…]), Cyclin B1-R ([…]), Actin-F ([…]), and Actin-R ([…]), and the primers respectively yielded PCR products with predicted sizes of 327 bp, 359 bp, 347 bp, and 626 bp. Primers used for mouse DNA were as follows: Rarres1-F([…]), Rarres1-R ([…]), Gapdh-F (TGCACCACCAACTGCTTA), and Gapdh-R (GGATGCAGGGATGATGTTC), and these primers respectively yielded PCR products with predicted sizes of 653 bp and 177 bp.
To determine whether promoter methylation was associated with the silencing of the RARRES1 expression in cancer cells, cells were treated with 5-aza-2′-deoxycytidine (5-aza-2-dC; 5, 25, and 100 uM) as an inhibitor of DNA methylation for 5 days.

[2] = test system: CDK1 protein; assay: Amount of CDK1 protein in cells transfected with RARRES1 and CDK1, treated with protein degradation inhibitors; type: cell-based; details: cells transfected with RARRES1 along with CDK1
Description: […]
In addition, when cells were transfected with RARRES1 along with CDK1 using the method of Example 1-1, the amount of the CDK1 protein was reduced. To examine how a quantitative change in the CDK1 protein was regulated, cells were treated with protein degradation inhibitors.

[3] = test system: embryonic epithelial cells; assay: Spheroid-formation assay with or without CDK1 inhibitor; type: cell-based, mouse
Description: Mouse embryo fibroblasts (MEFs) and mouse embryo epithelial cells (MEEs) were derived from 13.5-day-old embryos as previously described. That is, after removal of the head and internal organs, embryos were rinsed with phosphate buffered saline (PBS), minced, and treated with trypsin/EDTA to obtain single cells. The MEFs was resuspended in DMEM containing 10% FBS, 2 mM L-glutamine, 0.1 mM MEM nonessential amino acids, 55 uM beta-mercaptoethanol, and 100 IU/ml penicillin, and 100 ug/ml streptomycin. Cell media and reagents were obtained from GIBCO (Paisley, England). The MEEs were cultured in a D-MEM/F-12 medium containing 1% FBS, 1 mg of insulin, 1 mg of hydrocortisone, 12.5 μg of EGF, 10 mg of ascorbic acid, 10 mg of transferin, 14.1 mg of phosphoethanolamine, Na selenite, 1 μg of cholera toxin, 6.5 μg of triiodo thyronine, 35 mg of bovine pituitary extract, ethanolamine, 50 IU/ml of penicillin, and 50 ug/ml of streptomycin. The cells were incubated at 37° C. in a 5% CO2-humidified chamber. After disintegration of the embryos, plating was considered passage 0. All experiments were carried out using cells within passage 5 from three different batches. The genotypes of the MEFs and MEEs were confirmed by genotyping PCR. At least three independently generated cell lines per genotype were used.
In spheroid-formation assay, as mentioned above, advanced DMEM/F12 media used for embryonic epithelial cell culture were employed. The cells from the embryo of Rarres1^+/+ and Rarres1^−/− mice were suspended and seeded in […] with or without RO3306, CDK1 inhibitor, in a 24-well plate at a density of 2,000 or 5,000 cells per well. The size and number of spheres formed while adding 300 μl of a medium once three to four days were measured.

[4] = test system: Rarres1 KO MEFs; assay: Nocodazole treatment of MEFs, flow cytometry, cell counting and western blotting; type: cell-based, mouse
Description: For analysis of cell cycles or sub-G1 DNA contents, cells were immobilized with 80% ice-cold ethanol, and stored at 4° C. The cells were stained with PBS containing 50 ug/ml of propidium iodide (PI) and 100 ug/ml of RNase A at 37° C. for 30 minutes. DNA content was analyzed by FACS Calibur flow cytometry and the results thereof were analyzed using Cellquest software (Becton-Dickinson Immunocytometry Systems, San Diego, Calif.) and Modfit LT 3.3 software. At least 10,000 cells were analyzed per sample.
Growth was examined using MEFs derived from 13.5-day-old embryos. Cells were plated on a 6-well plate at a density of 20,000 cells/well, and then the number of the cells was counted every day from the following day for 5 days. To examine cell survival in response to nocodazole, which is a cell division inhibitor, cells were treated with 50 ng/ml or 100 ng/ml of nocodazole for 48 hours and cultured. Subsequently, the cells were treated with trypsin/EDTA and detached, followed by cell counting.
It was determined whether a mitotic stress-inducing drug such as nocodazole affects Rarres1 KO MEFs. MEF cells were treated with nocodazole (50 ng/ml or 100 ng/ml) or DMSO for 48 hours, and flow cytometry and cell counting according to Example 1-10 were performed thereon.

[5] = some cancer cells (CWR22rv, T47D)

Nc1ncn([C@H]2C[C@H](O)[C@@H](CO)O2)c(=O)n1 [5-aza-2-dC, 5-aza-2′-deoxycytidine]
RARRES1 expression after treatment ([1]; Calu3 and HCC70 cells having high mRNA levels of RARRES1): failed to have reintroduced RARRES1 expression | mRNA level of the RARRES1 gene after treatment ([1]; JIMT-1 cells): reduced | tested cell lines showing restored RARRES1 expression in a dose-dependent manner ([1]; breast cancer cell lines (8/10)): 80% | tested cell lines showing restored RARRES1 expression in a dose-dependent manner ([1]; lung cancer cell lines (4/5)): 80% | tested cell lines showing restored RARRES1 expression in a dose-dependent manner ([1]; prostate cancer cell lines (4/4)): 100% | RARRES1 isoform 1 after treatment [1, 5]: increased | RARRES1 isoform 2 after treatment [1, 5]: not detected

CO/C1=C\C(C)=C\[C@@H](C)[C@@H](O)[C@@H](C)C/C(C)=C/C=C/[C@H](OC)[C@@H]([C@@H](C)[C@@H](O)[C@H](C)[C@@]2(O)C[C@@H](O)[C@H](C)[C@@H](C(C)C)O2)OC1=O [BafA1, Bafilomycin A1]
amount of the CDK1 protein, which had been decreased by RARRES1 [2]: increased again

CC(C)C[C@@H](C=O)NC(=O)[C@H](CC(C)C)NC(=O)[C@H](CC(C)C)NC(=O)OCc1ccccc1 [MG132] (Cbz-Leu-Leu-Leu-aldehyde)
amount of the CDK1 protein, which had been decreased by RARRES1 [2]: still decreased

O=C1NC(=NCc2cccs2)S/C1=C\c1ccc2ncccc2c1 [RO3306]
overall spheroid formation ([3]; RO3306-treated versus not treated, cells from Rarres1+/+ and Rarres1-/- embryos): significantly reduced | sphere formation under RO3306 ([3]; embryonic epithelial cells from Rarres1-deficient mice): formed spheres | sphere formation under RO3306 ([3]; embryonic epithelial cells of the control mice): barely formed spheres

COC(=O)Nc1nc2ccc(C(=O)c3cccs3)cc2[nH]1 [nocodazole]
cleavage of PARP and Caspase 3 ([4]; KO cells compared to WT cells, nocodazole treated): decreased | number of the cells after nocodazole treatment ([4]; Rarres1-deficient MEFs versus WT MEFs, 50 or 100 ng/ml, 48 hours): less reduced | cell death induced by nocodazole ([4]; Rarres1-deficient MEFs versus WT MEFs, 50 or 100 ng/ml, 48 hours, dose-dependent): significantly reduced
